Test results as given in patent US12319710B2, “Catecholamine prodrugs for use in the treatment of Parkinson's diseases” (H. Lundbeck A/S, priority 2019, dated 2025).
Entries after “also recorded” stand apart in the source; their conditions may differ.

Columns and labels:
[1] = Conversion of compounds in human plasma; assay type: in vitro ADME; conditions: for Observed metabolite, incubation in human plasma: 1 μM test compound, 37° C., 0-6 hours, nd: not detected
Protocol: Frozen human plasma was thawed and then centrifuged at 3200×g for 5 minutes to remove debris. The pH value of the supernatant was then measured and adjusted to 7.4±0.1 by adding 1% phosphoric acid or 1 N sodium hydroxide. 2 μL of dosing solution (50 μM for test compounds and 100 μM for positive control (propantheline bromide)) was mixed with 98 μL of blank plasma to achieve 1 μM test compound and 2 μM positive control of final concentration. The mixture was incubated, and samples were withdrawn from the incubations at the pre-determined time points of 0, 0.5, 1, 2, 4 and 6 hours (in duplicate) at 37° C. in water bath. At each corresponding time point 10 μL inhibitor and 20 μL ascorbic acid and 2 μL formic acid (20%) are added, and then added 400 μL of “stop solution” (200 ng/mL tolbutamide plus 200 ng/mL labetalol in 50% ACN/MeOH) to precipitate protein. The substance was mixed thoroughly and thereafter centrifugated at 4,000 rpm for 20 minutes. Then an aliquot of supernatant (50 μL) was transferred from each well to a sample plate and mixed with 100 μL ultrapure water. The plate was shaked at 800 rpm for about 10 minutes before submitting to LC-MS/MS analysis.
(§1) Instrumentation Used for Analysis of Plasma and Hepatocyte Incubation Samples
(§2) Mass spectrometer (LC-MS/MS) Shimadzu LC 20-AD Shimadzu UHPLC API 4000. Analytical column ACQUITY UPLC® BEH Phenyl 1.7 μm 2.1×50 mm. Mobile phase A: 0.1% Formic Acid in Water. Mobile phase B: 0.1% Formic Acid in Acetonitrile. […] Flow rate 0.7 mL/min.

human 5-HT2B receptor = biological target: T1, human 5-HT2B receptor (Homo sapiens, UniProt P41595); test: 5-HT2B radioligand binding assay ([125I](±)DOI, CHO cell membranes); conditions: read-out: 5-HT2B % @ 10 μM (binding affinity, % inhibition of control specific binding)
T1 construct: host or cells: CHO cells (membrane homogenates)
T1 sequence (P41595 whole entry): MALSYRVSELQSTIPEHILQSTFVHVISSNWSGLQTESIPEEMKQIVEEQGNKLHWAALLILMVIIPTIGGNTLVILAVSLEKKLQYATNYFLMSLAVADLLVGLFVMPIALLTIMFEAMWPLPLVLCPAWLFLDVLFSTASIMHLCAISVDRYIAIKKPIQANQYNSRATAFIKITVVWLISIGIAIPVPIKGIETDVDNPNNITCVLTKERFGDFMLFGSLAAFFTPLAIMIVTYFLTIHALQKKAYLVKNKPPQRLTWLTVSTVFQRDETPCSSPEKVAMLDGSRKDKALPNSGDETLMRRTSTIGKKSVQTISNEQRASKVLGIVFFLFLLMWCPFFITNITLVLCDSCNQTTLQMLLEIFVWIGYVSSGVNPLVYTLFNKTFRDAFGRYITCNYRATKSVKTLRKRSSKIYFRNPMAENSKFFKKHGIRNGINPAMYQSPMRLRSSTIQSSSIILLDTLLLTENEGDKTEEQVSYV
Protocol: Evaluation of the affinity of compounds for the human 5-HT2B receptor was determined in a radioligand binding assay at Eurofins/Cerep (France). Membrane homogenates prepared from CHO cells expressing the human 5HT2B receptor were incubated for 60 minutes at room temperature with 0.2 nM [1251](±)DOI (1-(4-iodo-2, 5-dimethoxyphenyl)propan-2-amine) in the absence or presence of the test compound in a buffer containing 50 mM Tris-HCl (pH 7.4), 5 mM MgCl2, 10 μM pargyline and 0.1% ascorbic acid. Nonspecific binding is determined in the presence of 1 μM (±)DOI. Following incubation, the samples were filtered rapidly under vacuum through glass fiber filters (GF/B, Packard) presoaked with 0.3% polyethyleneimine (PEI) and rinsed several times with ice-cold 50 mM Tris-HCl using a 96-sample cell harvester (Unifilter, Packard). The filters were dried and counted for radioactivity in a scintillation counter (Topcount, Packard) using a scintillation cocktail (Microscint 0, Packard). The results are expressed as a percent inhibition of the control radioligand specific binding. The standard reference compound was (±)DOI, which was tested in each experiment at several concentrations to obtain a competition curve from which its IC50 is calculated.

[2] = PK experiments in rats: plasma compound (I) after oral dosing of prodrug; assay type: in vivo, Wistar rats; conditions: for Observed metabolite, in vivo PK study after oral dosing (rats): plasma
Protocol: Plasma was placed on water-ice following collection. Final storage at approximately −70° C.
Mobile phase B: Acetonitrile. […] Flow rate 0.5 mL/min.
The rats had unrestricted access to the diet.
Mobile phase B: Acetonitrile+0.2% formic acid. […] Flow rate 0.3 mL/min.
Dosing and blood sampling: Han Wistar rats were supplied by Envigo, UK. […] The rats received a standard laboratory diet Teklad 2014C. The rats had unrestricted access to the diet. […] Rats were given […] (Ic), 487 ag/kg compound (7), 487 ag/kg Compound (4), 674 ag/kg compound (9), 359 ag/kg A6 and 551 ag/kg A2.

human hepatocytes = test: Conversion of compounds in human hepatocytes; assay type: in vitro ADME; conditions: 1 μM compound, 37° C.; nd: not detected
Protocol: Incubations were conducted in 96-well plates at 1 μM compound concentration in duplicate. The hepatocyte cell concentration was 0.5×10^6 cells/mL used for final incubation at 37° C. in an incubator of 5% CO2 95% relative humidity. The medium control samples were included at 0 and 60 minutes in the absence of cells. The total organic concentration was 1% (DMSO 0.1%) in the final incubation. The controls, (7-ethoxycoumarin and 7-hydroxycoumarin) was incubated parallel at […]. 2 μL of dosing solution (50 μM for test compounds and 100 μM for positive control) was mixed with 98 μL of 100 mM PBS to achieve 1 μM test compound and 2 μM positive control of final concentration. The mixture was incubated, and samples were withdrawn from the incubations at pre-determined time points of 0, 0.5, 1, 2, 4 and 6 hour (in duplicate) at 37° C. in water bath. To each sample, 10 μL inhibitor and 20 μL ascorbic acid and 2 μL formic acid (20%) were added followed by 400 μL of stop solution (200 ng/mL tolbutamide plus 200 ng/mL labetalol in 50% ACN/MeOH). The substance was mixed thoroughly and thereafter centrifuged at 4,000 rpm for 20 minutes. An aliquot of supernatant (50 μL) from each well were transferred to a sample plate and mixed with 100 μL ultrapure water. The plate was shaked at 800 rpm for about 10 minutes before submitting to LC-MS/MS analysis.
as §1, §2

Compound | inhibition at 10 µM (human 5-HT2B receptor) [%] | Observed metabolite, incubation in human plasma [1] | Observed metabolite, incubation in human hepatocytes (human hepatocytes) | Observed metabolite, in vivo PK study after oral dosing (rats) [2] | other results
CCCN1CCC[C@@H]2Cc3c(ccc(O)c3O)C[C@H]21 [(I), (4aR,10aR)-1-Propyl-1,2,3,4,4a,5,10,10a-octahydro-benzo[g]quinoline-6,7-diol, reference compound] |  |  |  |  | half-life in the plasma assay ([1]; human plasma incubation): short half-life
CCCN1CCC[C@@H]2Cc3c(ccc(OC(=O)C(C)(C)C)c3OC(=O)C(C)(C)C)C[C@H]21 [(Ic), reference compound] | -5 |  |  |  | plasma concentrations of compound (I) after oral dosing (in words) ([2]; Wistar rats, oral): extremely low
CCCN1CCC[C@@H]2Cc3c(ccc(O)c3O[C@@H]3O[C@H](COC(C)=O)[C@@H](OC(C)=O)[C@H](OC(C)=O)[C@H]3OC(C)=O)C[C@H]21 [Compound (2), (2R,3R,4S,5R,6S)-2-(acetoxymethyl)-6-(((4aR,10aR)-7-hydroxy-1-propyl-1,2,3,4,4a,5,10,10a-octahydrobenzo[g]quinolin-6-yl)oxy)tetrahydro-2H-pyran-3,4,5-triyl triacetate] | -6 | Glucuronide |  |  | Observed metabolite, incubation in human plasma ([1]; listed as compound (2)): glucuronide derivative
CCCN1CCC[C@@H]2Cc3c(ccc(OC(C)=O)c3O[C@@H]3O[C@H](COC(C)=O)[C@@H](OC(C)=O)[C@H](OC(C)=O)[C@H]3OC(C)=O)C[C@H]21 [Compound (3), (2S,3R,4S,5R,6R)-2-(((4aR,10aR)-7-acetoxy-1-propyl-1,2,3,4,4a,5,10,10a-octahydrobenzo[g]quinolin-6-yl)oxy)-6-(acetoxymethyl)tetrahydro-2H-pyran-3,4,5-triyl triacetate] | 18 |  | Compound (4) |  | 
CCCN1CCC[C@@H]2Cc3c(ccc(O)c3O[C@@H]3O[C@H](CO)[C@@H](O)[C@H](O)[C@H]3O)C[C@H]21 [Compound (4), (2S,3R,4S,5S,6R)-2-(((4aR,10aR)-7-hydroxy-1-propyl-1,2,3,4,4a,5,10,10a-octahydrobenzo[g]quinolin-6-yl)oxy)-6-(hydroxymethyl)tetrahydro-2H-pyran-3,4,5-triol] | 0 |  | Compound (I) | Compound (I) | Observed metabolite, in vivo PK study after oral dosing (rats) ([2]; listed as compound (4)): showed conversion in vivo
CCCN1CCC[C@@H]2Cc3c(ccc(O[C@@H]4O[C@H](COC(C)=O)[C@@H](OC(C)=O)[C@H](OC(C)=O)[C@H]4OC(C)=O)c3O)C[C@H]21 [Compound (5), (2R,3R,4S,5R,6S)-2-(acetoxymethyl)-6-(((4aR,10aR)-6-hydroxy-1-propyl-1,2,3,4,4a,5,10,10a-octahydrobenzo[g]quinolin-7-yl)oxy)tetrahydro-2H-pyran-3,4,5-triyl triacetate] | 9 | Compound (7) | Compound (7) |  | 
CCCN1CCC[C@@H]2Cc3c(ccc(O[C@@H]4O[C@H](COC(C)=O)[C@@H](OC(C)=O)[C@H](OC(C)=O)[C@H]4OC(C)=O)c3OC(C)=O)C[C@H]21 [Compound (6), (2S,3R,4S,5R,6R)-2-(((4aR,10aR)-6-acetoxy-1-propyl-1,2,3,4,4a,5,10,10a-octahydrobenzo[g]quinolin-7-yl)oxy)-6-(acetoxymethyl)tetrahydro-2H-pyran-3,4,5-triyl triacetate] | -5 | Compound (7); also recorded: Compound (5) | Compound (7); also recorded: Compound (5) |  | 
CCCN1CCC[C@@H]2Cc3c(ccc(O[C@@H]4O[C@H](CO)[C@@H](O)[C@H](O)[C@H]4O)c3O)C[C@H]21 [Compound (7), (2S,3R,4S,5S,6R)-2-(((4aR,10aR)-6-hydroxy-1-propyl-1,2,3,4,4a,5,10,10a-octahydrobenzo[g]quinolin-7-yl)oxy)-6-(hydroxymethyl)tetrahydro-2H-pyran-3,4,5-triol] | 7 |  |  |  | 
CCCN1CCC[C@@H]2Cc3c(ccc(O[C@@H]4O[C@H](COC(C)=O)[C@@H](OC(C)=O)[C@H](OC(C)=O)[C@H]4OC(C)=O)c3O[C@@H]3O[C@H](COC(C)=O)[C@@H](OC(C)=O)[C@H](OC(C)=O)[C@H]3OC(C)=O)C[C@H]21 [Compound (8), [(2R,3R,4S,5R,6S)-6-[[(4aR,10aR)-1-propyl-6-[(2S,3R,4S,5R,6R)-3,4,5-triacetoxy-6-(acetoxymethyl)tetrahydropyran-2-yl]oxy-3,4,4a,5,10,10a-hexahydro-2H-benzo[g]quinolin-7-yl]oxy]-3,4,5-triacetoxy-tetrahydropyran-2-yl]methyl acetate] | -12 |  |  |  | 
CCCN1CCC[C@@H]2Cc3c(ccc(O[C@@H]4O[C@H](CO)[C@@H](O)[C@H](O)[C@H]4O)c3O[C@@H]3O[C@H](CO)[C@@H](O)[C@H](O)[C@H]3O)C[C@H]21 [Compound (9), (2R,2′R,3S,3′S,4S,4′S,5R,5′R,6S,6′S)-6,6′-(((4aR,10aR)-1-propyl-1,2,3,4,4a,5,10,10a-octahydrobenzo[g]quinoline-6,7-diyl)bis(oxy))bis(2-(hydroxymethyl)tetrahydro-2H-pyran-3,4,5-triol)] | -5 | Compound (7) | Compound (4); also recorded: Compound (7) | Compound (I) | 
CCCN1CCC[C@@H]2Cc3c(ccc(OCc4ccccc4)c3O)C[C@H]21 [Compound A2, (4aR,10aR)-7-(benzyloxy)-1-propyl-1,2,3,4,4a,5,10,10a-octahydrobenzo[g]quinolin-6-ol] | 30 | Compound (I) | Compound (I) | Compound (I) | 
CCCN1CCC[C@@H]2Cc3c(ccc(OC)c3O)C[C@H]21 [Compound A6, (4aR,10aR)-7-methoxy-1-propyl-1,2,3,4,4a,5,10,10a-octahydrobenzo[g]quinolin-6-ol] | 24 |  | Compound (I) | Compound (I) | 
